The test deals with human Factor XIIa (Homo sapiens (Human), UniProt P00748). The test is described as follows: Factor XIIa Assay. Format: biochemical. The note with it: purified human Factor XIIa 500 pM; substrate n-Acetyl-Lys-Pro-Arg-AFC 100 μM; pH 7.4; read-out: FXIIa IC50. An outline of the steps: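 Purified human FXIIa at 500 pM final with 100 μM n-Acetyl-Lys-Pro-Arg-AFC in 50 mM HEPES, 150 mM NaCl, 5 mM CaCl2, 0.1% PEG 8000, pH 7.4, at room temperature or 37° C. Initial fluorogenic hydrolysis rates measured after enzyme–inhibitor equilibration; IC50 taken where Vi=Vo/2.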
human Factor XIIa, sequence (P00748 373-615): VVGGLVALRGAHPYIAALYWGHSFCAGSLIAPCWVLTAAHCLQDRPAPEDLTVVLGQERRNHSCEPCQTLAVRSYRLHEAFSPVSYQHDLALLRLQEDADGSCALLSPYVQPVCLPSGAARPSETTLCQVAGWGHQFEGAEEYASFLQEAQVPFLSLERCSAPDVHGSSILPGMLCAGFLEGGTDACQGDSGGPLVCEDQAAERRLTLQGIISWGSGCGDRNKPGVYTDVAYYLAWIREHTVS
For orientation: IC50 means the concentration needed to halve the response being measured. For `COc1cc(CNC(=O)[C@@H]2CN(C(=O)Oc3cccc(CN)c3)CCN2C(=O)[C@@H](CCCCNS(C)(=O)=O)NC2CCC3(CC2)CCN(Cc2ccccc2)C3)ccc1CN` (stereo partly drawn) [Example 76, 3-(aminomethyl)phenyl (3S)-3-{[4-(aminomethyl)-3-methoxybenzyl]carbamoyl}-4-[N^2-(2-benzyl-2-azaspiro[4.5]dec-8-yl)-N^6= (methylsulfonyl)-D-lysyl]piperazine-1-carboxylate], the IC50 worked out at 4.1 nM. Regarding `C[C@@H]1N=C(N2CCN(C(=O)[C@@H](CCCCN(C)C)N(C)C3CCC4(CC3)CCN(Cc3ccccc3)C4)[C@H](C(=O)NCc3cccs3)C2)O[C@H]1c1ccccc1` (stereo partly drawn) [Example 131, (2S)-1-[N^2-(2-benzyl-2-azaspiro[4.5]dec-8-yl)-N^2,N^6,N^6-trimethyl-D-lysl]-4-[(4S,5S)-4-methyl-5-phenyl-4,5-dihydro-1,3-oxazol-2-yl]-N-(thiophen-2-ylmethyl)piperazine-2-carboxamide], the IC50 amounted to 1.8 nM. `NCc1ccc(CNC(=O)[C@@H]2CN(C(=O)Oc3cccc4ccccc34)CCN2C(=O)[C@@H](CC2CCCCC2)NC2CCCCC2)cc1` [Example 26, naphthalen-1-yl (3S)-3-{[4-(aminomethyl)benzyl]carbamoyl}-4-(N,3-dicyclohexyl-D-alanyl)piperazine-1-carboxylate]: the IC50 amounted to 8.4 nM. Next, `C[C@H]1N=C(N2CCN(C(=O)[C@@H](CC3CCCCC3)NC3CCCCC3)[C@H](C(=O)NCc3cccs3)C2)O[C@H]1c1ccccc1` [Example 114, (2S)-1-(N,3-dicyclohexyl-D-alanyl)-4-[(4R,5S)-4-methyl-5-phenyl-4,5-dihydro-1,3-oxazol-2-yl]-N-(thiophen-2-ylmethyl)piperazine-2-carboxamide]: 17.1 nM. With `COc1cc(CNC(=O)[C@@H]2CN(C3=N[C@@H](C)[C@H](c4ccccc4)O3)CCN2C(=O)[C@@H](CCCCN2CCCCC2)NC(C)C)ccc1CN` [Example 118, (2S)-N-[4-(aminomethyl)-3-methoxybenzyl]-1-[N-(1-methylethyl)-6-piperidin-1-yl-D-norleucyl]-4-[(4S,5S)-4-methyl-5-phenyl-4,5-dihydro-1,3-oxazol-2-yl]piperazine-2-carboxamide] the figure was 8.1 nM; with `C[C@@H]1N=C(N2CCN(C(=O)[C@@H](CCCCNS(C)(=O)=O)NC3CCC4(CC3)CCN(Cc3ccccc3)C4)[C@H](C(=O)NCc3cccs3)C2)O[C@H]1c1ccccc1` (stereo partly drawn) [Example 128, (2S)-1-[N^2-(2-benzyl-2-azaspiro[4.5]dec-8-yl)-N^6-(methylsulfonyl)-D-lysyl]-4-[(4S,5S)-4-methyl-5-phenyl-4,5-dihydro-1,3-oxazol-2-yl]-N-(thiophen-2-ylmethyl)piperazine-2-carboxamide], 10.2 nM. Next, `COc1cc(CNC(=O)[C@@H]2CN(C(=O)Oc3ccc4ccccc4c3Cl)CCN2C(=O)[C@@H](CCCCN(C)C)N(C)C2CCC3(CC2)CCN(Cc2ccccc2)C3)ccc1CN` (stereo partly drawn) [Example 87, 1-chloronaphthalen-2-yl (3S)-3-{[4-(aminomethyl)-3-methoxybenzyl]carbamoyl}-4-[N^2-(2-benzyl-2-azaspiro[4.5]dec-8-yl)-N^2,N^6,N^6-trimethyl-D-lysyl]piperazine-1-carboxylate]: 1 nM; `Cc1ncnc2c(OC(=O)N3CCN(C(=O)[C@@H](CC4CCCCC4)NC4CCCCC4)[C@H](C(=O)NCc4cccs4)C3)cccc12` [Example 29, 4-methylquinazolin-8-yl (3S)-4-(N,3-dicyclohexyl-D-alanyl)-3-[(thiophen-2-ylmethyl)carbamoyl]piperazine-1-carboxylate]: 3.3 nM.

For the molecule `CC(C)N[C@H](CCCCN1CCCCC1)C(=O)N1CCN(C2=NC(C)(C)C(c3ccccc3)O2)C[C@H]1C(=O)NCc1cc2cnccc2s1` (stereo partly drawn) [Example 159, (2S)-4-(4,4-dimethyl-5-phenyl-4,5-dihydro-1,3-oxazol-2-yl)-1-[N-(1-methylethyl)-6-piperidin-1-yl-D-norleucyl]-N-(thieno[3,2-c]pyridin-2-ylmethyl)piperazine-2-carboxamide], the IC50 was found to be 27.4 nM.

Turning to `NCc1ccc(OC(=O)N2CCN(C(=O)[C@@H](CC3CCCCC3)NC3CCCCC3)[C@H](C(=O)NCc3cccs3)C2)c(Cl)c1` [Example 21, 4-(aminomethyl)-2-chlorophenyl (3S)-4-(N,3-dicyclohexyl-D-alanyl)-3-[(thiophen-2-ylmethyl)carbamoyl]piperazine-1-carboxylate], the IC50 came to 6.7 nM. Next, `O=C(NCc1cccs1)[C@@H]1CN(C(=O)Oc2cccc3c2CCNC3)CCN1C(=O)[C@@H](CC1CCCCC1)NC1CCCCC1` [Example 36, 1,2,3,4-tetrahydroisoquinolin-5-yl (3S)-4-(N,3-dicyclohexyl-D-alanyl)-3-[(thiophen-2-ylmethyl)carbamoyl]piperazine-1-carboxylate]: 4.1 nM; `C[C@@H]1N=C(N2CCN(C(=O)[C@@H](CCCCN3CCCCC3)NC3CCC(CN)CC3)[C@H](C(=O)NCc3ccc(C(N)=O)s3)C2)O[C@H]1c1ccccc1` (stereo partly drawn) [Example 177, (2S)-1-{N-[4-(aminomethyl)cyclohexyl]-6-piperidin-1-yl-D-norleucyl}-N-[(5-carbamoylthiophen-2-yl)methyl]-4-[(4S,5S)-4-methyl-5-phenyl-4,5-dihydro-1,3-oxazol-2-yl]piperazine-2-carboxamide]: 27.9 nM; `CN(C)CCCC[C@@H](NC1CCC2(CC1)CCN(Cc1ccccc1)C2)C(=O)N1CCN(C(=O)Oc2ccccc2Cl)C[C@H]1C(=O)NCc1cccs1` (stereo partly drawn) [Example 78, 2-chlorophenyl (3S)-4-[N^2-(2-benzyl-2-azaspiro[4.5]dec-8-yl)-N^6,N^6-dimethyl-D-lysyl]-3-[(thiophen-2-ylmethyl)carbamoyl]piperazine-1-carboxylate]: 0.9 nM. As to `NCc1ccc(CNC(=O)[C@@H]2CN(C(=O)Oc3ccccc3Cl)CCN2C(=O)[C@@H](CC2CCCCC2)NC2CCCCC2)cc1` [Example 5, 2-chlorophenyl (3S)-3-{[4-(aminomethyl)benzyl]carbamoyl}-4-(N,3-dicyclohexyl-D-alanyl)piperazine-1-carboxylate], the IC50 came to 5.9 nM. With `CS(=O)(=O)NCCCC[C@@H](NC1CCC2(CC1)CCN(Cc1ccccc1)C2)C(=O)N1CCN(C(=O)Oc2cccc3c2CCNC3)C[C@H]1C(=O)NCc1cccs1` (stereo partly drawn) [Example 81, 1,2,3,4-tetrahydroisoquinolin-5-yl (3S)-4-[N^2-(2-benzyl-2-azaspiro[4.5]dec-8-yl)-N^6-(methylsulfonyl)-D-lysyl]-3-[(thiophen-2-ylmethyl)carbamoyl]piperazine-1-carboxylate] the figure was 3.4 nM. As to `Cc1ccc(OC(=O)N2CCN(C(=O)[C@@H](CCCCN3CCCC3C)NC3CCC4(CC3)CCN(Cc3ccccc3)C4)[C@H](C(=O)NCc3cccs3)C2)c(Cl)c1C` (stereo partly drawn) [Example 110, 2-chloro-3,4-dimethylphenyl (3S)-4-[N-(2-benzyl-2-azaspiro[4.5]dec-8-yl)-6-(2-methylpyrrolidin-1-yl)-D-norleucyl]-3-[(thiophen-2-ylmethyl)carbamoyl]piperazine-1-carboxylate], the IC50 amounted to 0.3 nM.

The values above are taken from patent US10875851B2, “Factor XIIa inhibitors” (Merck Sharp & Dohme Corp., priority 2016, dated 2020).
